Patent US20240270762A1, “PENICILLIN-BINDING PROTEIN INHIBITORS” (priority 2021, published 2024)
pEC50: −log10 of the molar value. Converted amounts (≈) assume the structure as drawn.

Key:
[1] = target: T1, PBP2 from Neisseria gonorrhoeae (FA19) (Neisseria gonorrhoeae, UniProt P08149); assay: Bocillin-FL fluorescence polarization competition binding, N. gonorrhoeae PBP2; conditions: fluorescence polarization competition binding assay using Bocillin-FL, read-out: N. gonorrhoeae PBP2 Potency
T1 construct: made in house
T1 sequence (P08149 whole entry): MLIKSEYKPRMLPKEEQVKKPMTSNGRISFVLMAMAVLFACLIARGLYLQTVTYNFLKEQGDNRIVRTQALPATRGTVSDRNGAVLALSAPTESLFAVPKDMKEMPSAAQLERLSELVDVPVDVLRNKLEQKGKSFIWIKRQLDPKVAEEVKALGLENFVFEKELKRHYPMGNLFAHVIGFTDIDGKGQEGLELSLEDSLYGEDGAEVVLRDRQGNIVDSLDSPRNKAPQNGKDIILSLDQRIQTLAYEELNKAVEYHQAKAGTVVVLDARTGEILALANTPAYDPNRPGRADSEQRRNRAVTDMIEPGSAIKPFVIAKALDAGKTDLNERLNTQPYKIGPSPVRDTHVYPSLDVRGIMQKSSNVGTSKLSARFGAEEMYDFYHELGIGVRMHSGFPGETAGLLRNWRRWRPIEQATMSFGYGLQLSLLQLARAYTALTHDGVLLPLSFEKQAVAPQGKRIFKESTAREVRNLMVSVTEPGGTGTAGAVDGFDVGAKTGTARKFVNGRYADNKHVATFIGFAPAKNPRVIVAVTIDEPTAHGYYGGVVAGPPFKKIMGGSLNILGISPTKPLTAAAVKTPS
Source text: To determine the ability of boronic acid-based test PBP inhibitors to bind Penicillin Binding Proteins (PBPs), Bocillin-FL (fluorescently-labeled penicillin V; ThermoFisher Scientific) was used in a fluorescence polarization (FP) competition binding assay to assess inhibitor binding to PBP3 from Escherichia coli (K-12), PBP3 from Pseudomonas aeruginosa (PAO1), PBP1a and PBP3 from Acinetobacter baumannii (ATCC 19606), and PBP2 from Neisseria gonorrhoeae (FA19). PBPs were cloned and purified as described previously (E. coli PBP3, King, D. T, et al., ACS Infectious Diseases 2015, 1, 175-184; P. aeruginosa PBP3, Han et. al., PNAS 2010, 107 (51), 22002-22007; A. baumannii PBPs, Penwell et. al., Antimicrob. Agents Chemother. 2015, 59 (3), 1680-1689; N. gonorrhoeae PBP2, Singh et. al., J. Biol. Chem. 2019, 294 (38), 14020-14032). To establish assay conditions for competition binding, enzyme titration/saturation binding experiments were initially performed. Bocillin-FL was prepared at 0.2 μM in a buffer comprised of 50 mM Hepes (pH 8.0), 300 mM NaCl and 10% (v/v) glycerol for reactions with E. coli, P. aeruginosa and N. gonorrhoeae PBPs, and 25 mM Tris (pH 8.0), 200 mM NaCl, 10% (v/v) glycerol and 0.005% (v/v) Tween 20 for reactions with A. baumannii PBPs. Saturation binding was performed by mixing 40 μl of PBP solutions ranging in concentrations from 0-24 μM with 40 μl of the 0.2 μM Bocillin-FL solution, in individual wells of a black 384-well microplate. FP was measured immediately upon mixing (Excitation, 490 nm; Emission, 520 nm; g-factor, 0.96), using a Cytation3 (BioTek) microplate reader and measured continuously for up to 120 minutes. […] The competition binding assay (80 μl final volume) was validated using beta-lactams and PBPs at final concentrations of: 1.5 μM for E. coli PBP3; 0.75 μM for P. aeruginosa PBP3; 1 μM for A. baumannii PBP1a; 0.2 μM for A. baumannii PBP3; and 0.25 μM for N. gonorrhoeae PBP2. Bocillin-FL was at 0.1 μM (0.05 μM with A. baumannii PBP1a) and beta-lactam concentrations ranged from 0-1,000 μM. E. coli PBP3 was incubated with increasing concentrations of ampicillin in a black 384-well microplate (Corning) for 30 minutes. P. aeruginosa PBP3 was incubated for 15 minutes with aztreonam, whereas A. baumannii PBP1a and PBP3 were incubated for 15 minutes with meropenem, and then Bocillin-FL was added followed immediately by the FP measurement for up to 60 minutes. […] The beta-lactam potency was reported as the concentration of beta-lactam required to reduce the amount of PBP bound-Bocillin-FL by 50% (EC50). […] Binding assays for boronic acid PBP inhibitors were performed in an identical fashion for the respective PBPs.

E. coli ATCC 25922 = assay: microbe, parasite or virus in culture; format: cell-based; conditions: Escherichia coli, ATCC25922, read-out: MIC E. coli 25922
E. coli AG100 = assay: microbe, parasite or virus in culture; format: cell-based; conditions: Escherichia coli, AG100, read-out: MIC E. coli AG100
E. coli 901C = assay: microbe, parasite or virus in culture; format: cell-based; conditions: Escherichia coli, read-out: MIC E. coli 901C
E. coli D22 = assay: microbe, parasite or virus in culture; format: cell-based; conditions: Escherichia coli, D22, read-out: MIC E. coli D22
K. pneumoniae 848844 = assay: microbe, parasite or virus in culture; format: cell-based; conditions: Klebsiella pneumoniae, 848844, read-out: MIC K. pneumoniae 848844
K. pneumoniae UMM = assay: microbe, parasite or virus in culture; format: cell-based; conditions: Klebsiella pneumoniae, read-out: MIC K. pneumoniae UMM
K. pneumoniae SI-117 = assay: microbe, parasite or virus in culture; format: cell-based; conditions: Klebsiella pneumoniae, SI117, read-out: MIC K. pneumoniae SI-117
P. aeruginosa ATCC 27853 = assay: microbe, parasite or virus in culture; format: cell-based; conditions: Pseudomonas aeruginosa, ATCC27853, read-out: MIC P. aeruginosa ATCC 27853
A. baumannii ATCC 19606 = assay: microbe, parasite or virus in culture; format: cell-based; conditions: Acinetobacter baumannii, ATCC19606, read-out: MIC, A. baumannii ATCC 19606
P. aeruginosa ATCC 35151 = assay: microbe, parasite or virus in culture; format: cell-based; conditions: Pseudomonas aeruginosa, ATCC35151, read-out: MIC P. aeruginosa ATCC 35151
[2] = test system: P. aeruginosa (ΔmexAB-oprM); assay: Broth microdilution MIC in CAMHB; format: cell-based; conditions: Pseudomonas aeruginosa; read-out: MIC P. aeruginosa ΔmexAB-oprM
N. gonorrhoeae FA1090 = assay: Liquid broth MIC in Fastidious broth; conditions: Neisseria gonorrhoeae, FA1090, read-out: Minimum Inhibitory Concentration (MIC), N. gonorrhoeae FA 1090
N. gonorrhoeae MS11 = assay: Liquid broth MIC in Fastidious broth; conditions: Neisseria gonorrhoeae, MS11, read-out: Minimum Inhibitory Concentration (MIC), N. gonorrhoeae MS11
N. gonorrhoeae WHO M = assay: Liquid broth MIC in Fastidious broth; conditions: Neisseria gonorrhoeae, read-out: Minimum Inhibitory Concentration (MIC), N. gonorrhoeae WHO M
Procedure: Liquid broth-based assays were used for antibacterial testing of PBP inhibitors in Neisseria gonorrhoeae. Briefly, cryo-preserved bacterial cultures of clinical strains were streaked for isolation on Chocolate Agar (72 g/L (2×) GC Agar Base (BD #228950) and 2% (2×) Hemoglobin was autoclaved at 121° C. for 20 minutes to sterilize. Once cooled to ˜50° C. the 2×GC Agar Base and 2× Hemoglobin solutions are combined and 1% IsoVitaleX Enrichment (BD #211876) was added to the solution). Strains were incubated at 36° C. and 5% CO2 to allow growth of colonies, 24 hours before inoculum preparation. 2-fold serial dilutions of test compounds were conducted in a 96 well plate with a final volume of 75 μL per well at 2-fold the final desired concentration in Fastidious broth (Remel #R07664). For preparation of assay inoculum, a direct suspension was prepared by aseptically swabbing 10-15 colonies from agar plates into culture tubes containing 2 mL of fresh sterile saline. After the dilution plates were set up, direct suspensions were then diluted in a cuvette containing sterile saline and the optical density was measured at 600 nm. Inocula were diluted such that 75 μL of this culture in Fastidious broth results in a starting bacterial concentration of 5×10^5 CFU/mL when added to the dilution plates. The plates were incubated for ˜24 hours at 36° C. and 5% CO2.

N. gonorrhoeae WHO K = assay: Liquid broth MIC in Fastidious broth; conditions: Neisseria gonorrhoeae, read-out: Minimum Inhibitory Concentration (MIC), N. gonorrhoeae WHO K
N. gonorrhoeae WHO X = assay: Liquid broth MIC in Fastidious broth; conditions: Neisseria gonorrhoeae, read-out: Minimum Inhibitory Concentration (MIC), N. gonorrhoeae WHO X
N. gonorrhoeae WHO Z = assay: Liquid broth MIC in Fastidious broth; conditions: Neisseria gonorrhoeae, read-out: Minimum Inhibitory Concentration (MIC), N. gonorrhoeae WHO Z

Compound	pEC50 [1]	MIC (E. coli ATCC 25922) [µg/mL]	MIC (E. coli AG100) [µg/mL]	MIC (E. coli 901C) [µg/mL]	MIC (E. coli D22) [µg/mL]	MIC (K. pneumoniae 848844) [µg/mL]	MIC (K. pneumoniae UMM) [µg/mL]	MIC (K. pneumoniae SI-117) [µg/mL]	MIC (P. aeruginosa ATCC 27853) [µg/mL]	MIC (A. baumannii ATCC 19606) [µg/mL]	MIC (P. aeruginosa ATCC 35151) [µg/mL]	MIC [2] [µg/mL]	MIC (N. gonorrhoeae FA1090) [µg/mL]	MIC (N. gonorrhoeae MS11) [µg/mL]	MIC (N. gonorrhoeae WHO M) [µg/mL]	MIC (N. gonorrhoeae WHO K) [µg/mL]	MIC (N. gonorrhoeae WHO X) [µg/mL]	MIC (N. gonorrhoeae WHO Z) [µg/mL]
CS(=O)(=O)N1CCN(C(=O)N[C@@H](C(=O)N[C@H]2Cc3cccc(C(=O)O)c3OB2O)c2ccc(P(=O)(O)O)c(F)c2)C1=O (single isomer, unassigned) [Example 15]	> 5.00	32 to 64 (≈ 50.9 to 102 µM)	32 to 64 (≈ 50.9 to 102 µM)	< 1	2 to 4 (≈ 3.18 to 6.37 µM)	> 128	> 128	> 128	> 128	32 to 64 (≈ 50.9 to 102 µM)	2 to 4 (≈ 3.18 to 6.37 µM)	32 to 64 (≈ 50.9 to 102 µM)	< 1	< 1	< 1	< 1	< 1	< 1
CS(=O)(=O)N1CCN(C(=O)N[C@@H](C(=O)N[C@H]2Cc3ccc(F)c(C(=O)O)c3OB2O)c2ccc(P(=O)(O)O)c(F)c2)C1=O (single isomer, unassigned) [Example 19]	> 5.00	> 128	> 128	< 1	8 to 16 (≈ 12.4 to 24.8 µM)	> 128	> 128	> 128	> 128	> 128	2 to 4 (≈ 3.09 to 6.19 µM)	32 to 64 (≈ 49.5 to 99 µM)	< 1	< 1	< 1	< 1	< 1	< 1
O=C(O)c1cccc2c1OB(O)[C@@H](NC(=O)[C@@H](NC(=O)N1CCCCC1=O)c1ccc(P(=O)(O)O)cc1)C2 [Example 36, (R)-2-hydroxy-3-((S)-2-(2-oxopiperidine-1-carboxamido)-2-(4-phosphonophenyl)acetamido)-3,4-dihydro-2H-benzo[39e][1,2]oxaborinine-8-carboxylic acid]	4.30 to 5.00	> 128	> 128	8 to 16 (≈ 14.7 to 29.3 µM)	32 to 64 (≈ 58.7 to 117 µM)	> 128	> 128	> 128	> 128	> 128	8 to 16 (≈ 14.7 to 29.3 µM)	> 128	1 to 2 (≈ 1.83 to 3.67 µM)	16 to 32 (≈ 29.3 to 58.7 µM)	1 to 2 (≈ 1.83 to 3.67 µM)	16 to 32 (≈ 29.3 to 58.7 µM)	16 to 32 (≈ 29.3 to 58.7 µM)	16 to 32 (≈ 29.3 to 58.7 µM)
O=C(O)c1cccc2c1OB(O)[C@@H](NC(=O)[C@@H](NC(=O)N1CCNC1=O)c1ccc(P(=O)(O)O)cc1)C2 [Example 39, (R)-2-hydroxy-3-((S)-2-(2-oxoimidazolidine-1-carboxamido)-2-(4-phosphonophenyl)acetamido)-3,4-dihydro-2H-benzo[e][1,2]oxaborinine-8-carboxylic acid]	4.30 to 5.00	> 128	> 128	2 to 4 (≈ 3.76 to 7.52 µM)	32 to 64 (≈ 60.1 to 120 µM)	> 128	> 128	> 128	> 128	> 128	2 to 4 (≈ 3.76 to 7.52 µM)	> 128	< 1	1 to 2 (≈ 1.88 to 3.76 µM)	< 1	16 to 32 (≈ 30.1 to 60.1 µM)	16 to 32 (≈ 30.1 to 60.1 µM)	1 to 2 (≈ 1.88 to 3.76 µM)
